In US20260028410A1, “TREATMENT OF GRAFT VERSUS HOST DISEASES USING ANTI-CD122 ANTIBODY” (FORTE SUBSIDIARY, INC., priority 2023, published 2026):

Assays:
[1] = system: human T and NK cell-mediated aGvHD (xenograft GvHD mouse model); experiment: Acute GvHD xenograft mouse model, single vs combination therapy with Antibody 2 or Antibody 3 (Example 5), survival; format: in vivo, NCG-hIL-15 mice transplanted with human PBMCs
Procedure: (§1) A xenograft GvHD mouse model was utilized to study human T and NK cell-mediated aGvHD and the therapeutic effects of anti-CD122 antibody treatment in single or combination therapy approaches. Female NCG-hIL-15 mice were irradiated at a dosage of 100 cGy on Day 1 of the protocol and human peripheral blood mononuclear cells (PBMCs) were transplanted via injection at a dosage of 1×10^7 cells/200 μL/mice via IV administration into the irradiated mice according to the same xenograft GvHD mouse model design as in Example 1.
Treatment according to 3 different grouping of animals was begun on Day 5 following transplant, as shown in the study design of FIG. 5. Groups of a sufficient number of mice were used for each test category in order to evaluate a significant difference between test groups. A single treatment group, Group #1, received ruxolitinib (at a dosage of 60 mpk) twice-daily by oral administration beginning on Day 5 and ending on Day 18. Days of treatment are D5, D6, D7, D8, D9, D10, D11, D12, D13, D14, D15, D16, D17, and D18. A combination therapy group, Group #2, received ruxolitinib (at a dosage of 60 mpk) twice-daily by oral administration beginning on Day 5 and ending on Day 18. Days of treatment using ruxolitinib in Group #2 were D5, D6, D7, D8, D9, D10, D1I, D12, D13, D14, D15, D16, D17, and D18. Group #2 animals separately receive anti-CD122 antibody therapy (at a dosage of 75 mpk) once-daily by IP administration. Days of treatment using anti-CD122 antibody in Group #2 were D5, D6, D7, D8, D9, D10, D11, D12, D13, D14, D15, D16, D17, and D18. A vehicle group, Group #3, served as a negative control with vehicle-only administered following transplant received twice daily oral placebo (vehicle only) beginning on Day 5 and ending on Day 18. Days of oral placebo treatment were D5, D6, D7, D8, D9, D10, D11, D12, D13, D14, D15, D16, D17, and D18. […]
(§2) Day 18 was the end of study day for all treatment groups. Animals from all treatment groups were assessed daily beginning on Day 1 and ending on Day 18 for survival following transplant. […]

[2] = system: human T and NK cell-mediated aGvHD (xenograft GvHD mouse model); experiment: Acute GvHD xenograft mouse model, dose-ranging of Antibody 1 (Example 1), survival; format: in vivo, NCG-hIL-15 mice transplanted with human PBMCs; settings: Day 14; 60 mcg each twice daily oral D5-D14; n=10
Procedure: A xenograft GvHD mouse model was utilized to study human T and NK cell-mediated aGvHD and the therapeutic effects of anti-CD122 antibody treatment therein. Female NCG-hIL-15 mice were irradiated at a dosage of 100 cGy on Day 1 of the protocol and human peripheral blood mononuclear cells (PBMCs) were transplanted via injection at a dosage of 1×10^7 cells/200 μL/mice via IV administration into the irradiated mice. PBMCs are immune cells that originate in the bone marrow and are secreted into the peripheral circulation forming critical components of the immune system. PBMCs are involved in humoral and cell-mediated immune function. […] Groups of 10 mice were used for each test category. A vehicle group (n=10) served as a negative control with no treatment administered (only a combination of vehicle treatments) following transplant. A positive control group (n=10) of mice treated with 60 mcg each of ruxolitinib twice daily by oral administration was included in the study design. Ruxolitinib-treated animals were treated via oral administration of ruxolitinib twice daily on D5, D6, D7, D8, D9, D10, D11, D12, D13, and D14. Three groups of Antibody 1 treated animals (n=10 for each group) were tested using a) 75 milligram per kilogram of body weight (mpk) of antibody, b) 125 mpk of antibody, and c) 175 mpk of antibody, respectively. […]

[3] = system: human T and NK cell-mediated aGvHD (xenograft GvHD mouse model); experiment: Acute GvHD xenograft mouse model, single vs combination therapy with Antibody 1 (Example 2), survival; format: in vivo, NCG-hIL-15 mice transplanted with human PBMCs; settings: ruxolitinib 60 mpk twice-daily oral, Antibody 1 75 mpk once-daily IP, D5-D18
Procedure: as §1
Treatment according to 3 different grouping of animals was begun on Day 5 following transplant, as shown in the study design of FIG. 3. Groups of 10 mice were used for each test category. A single treatment group, Group #1, (n=10) received ruxolitinib (at a dosage of 60 mpk) twice-daily by oral administration beginning on Day 5 and ending on Day 18. Days of treatment were D5, D6, D7, D8, D9, D10, D11, D12, D13, D14, D15, D16, D17, and D18. A combination therapy group, Group #2, (n=10) received ruxolitinib (at a dosage of 60 mpk) twice-daily by oral administration beginning on Day 5 and ending on Day 18. Days of treatment using ruxolitinib in Group #2 were D5, D6, D7, D8, D9, D10, D11, D12, D13, D14, D15, D16, D17, and D18. Group #2 animals separately received treatment with Antibody 1 (anti-CD122 antibody as described herein) at a dosage of 75 mpk once-daily by IP administration. Days of treatment using Antibody 1 in Group #2 were D5, D6, D7, D8, D9, D10, D11, D12, D13, D14, D15, D16, D17, and D18. A vehicle group, Group #3, (n=10) served as a negative control with vehicle-only administered following transplant received twice daily oral placebo (vehicle only) beginning on Day 5 and ending on Day 18. Days of oral placebo treatment were D5, D6, D7, D8, D9, D10, D11, D12, D13, D14, D15, D16, D17, and D18. […]
as §2

[4] = target: high-affinity heterotrimer IL-αβγ receptor; settings: ligand affinity for IL-αβγ receptor combinations; cited from earlier work
[5] = target: T1, Intermediate-affinity heterodimeric IL-βγ receptor (Homo sapiens, UniProt P14784+P31785); settings: ligand affinity for IL-βγ receptor (CD122/CD132); cited from earlier work
T1 sequence (P14784 27-551): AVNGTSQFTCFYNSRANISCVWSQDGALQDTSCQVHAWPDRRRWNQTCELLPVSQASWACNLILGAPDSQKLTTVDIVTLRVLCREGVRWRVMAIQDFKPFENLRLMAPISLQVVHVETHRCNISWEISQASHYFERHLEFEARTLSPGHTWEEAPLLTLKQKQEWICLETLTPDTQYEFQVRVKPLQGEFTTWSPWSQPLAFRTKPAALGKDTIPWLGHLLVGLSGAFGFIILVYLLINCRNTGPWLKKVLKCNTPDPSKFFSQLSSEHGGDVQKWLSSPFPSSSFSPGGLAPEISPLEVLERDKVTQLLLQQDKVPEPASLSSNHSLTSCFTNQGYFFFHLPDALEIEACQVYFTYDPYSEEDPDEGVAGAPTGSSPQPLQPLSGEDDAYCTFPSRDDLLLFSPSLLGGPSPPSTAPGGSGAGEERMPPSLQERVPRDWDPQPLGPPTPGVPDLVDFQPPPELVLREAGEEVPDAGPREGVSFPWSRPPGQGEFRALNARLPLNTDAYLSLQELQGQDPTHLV
T1 sequence (P31785 23-369): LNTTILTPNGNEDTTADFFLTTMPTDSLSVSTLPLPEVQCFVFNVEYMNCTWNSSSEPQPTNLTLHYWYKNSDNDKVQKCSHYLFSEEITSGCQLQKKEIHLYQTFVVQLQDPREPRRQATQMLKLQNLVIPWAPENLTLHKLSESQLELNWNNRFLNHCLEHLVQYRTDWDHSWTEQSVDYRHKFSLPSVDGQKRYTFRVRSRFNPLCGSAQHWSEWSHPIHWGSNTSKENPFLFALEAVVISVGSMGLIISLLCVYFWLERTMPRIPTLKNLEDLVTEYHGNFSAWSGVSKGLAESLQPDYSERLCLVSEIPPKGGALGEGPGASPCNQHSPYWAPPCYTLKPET

Row | Compound | survival on Day 18 ([1]; Day 18, ruxolitinib 60 mpk twice-daily oral, anti-CD122 antibody 75 mpk once-daily IP, D5-D18, n=10) [%] | Median survival ([1]; aGvHD xenograft mice, treatment Day 5 to Day 18 (ruxolitinib 60 mpk twice-daily oral; anti-CD122 antibody 75 mpk once-daily IP), followed to Day 18) [days] | Average survival time ([1]; aGvHD xenograft mice, treatment Day 5 to Day 18 (ruxolitinib 60 mpk twice-daily oral; anti-CD122 antibody 75 mpk once-daily IP), followed to Day 18, Mean ± SD) [days] | survival at study conclusion [2] [%] | survival rate at the end of the study ([3]; Day 18, n=10) [%] | Average survival time ([3]; up to Day 18, Mean ± SD) [days] | Median survival ([3]; up to Day 18) [days] | Kd [4] [nM] | Kd [5] [nM]
1 | N#CC[C@H](C1CCCC1)n1cc(-c2ncnc3[nH]ccc23)cn1 [ruxolitinib] | 0 | 14 | 13.20 ± 0.93 | 60 | 30 | 16.3 ± 3.4 | 17.5 |  | 
2 | IL15: cytokine interleukin 15 |  |  |  |  |  |  |  | ~0.01 | ~1
